These results are taken from the supplement of paper PMC10949913.

Test in all cases: area under concentration-response curve (viability) (AUC (a.u.)); higher = less active
What all share (details): 48 h

For one assay, the system named is CU-ACC1. In a few lines:
(§1)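 Library compounds were dispensed at 11 concentrations (23 nL each) onto three adrenocortical carcinoma cell lines in 1,536-well plates. Luminescence was recorded after 48 h using CellTiter-Glo, and signals were normalised per plate to vehicle and empty-well controls. Fitted concentration-response curves of inhibitory or non-responding classes only supplied the AC50 and area under the curve.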

A further assay has as its system CU-ACC2. The essentials:
as §1

Another assay deals with NCI-H295R. The essentials: as §1

SMILES strings stand for the structures.

For the molecule `Cn1cnc(N)c2ncnc1-2`, the “area under concentration-response curve” value with CU-ACC1 was 438; in the assay on CU-ACC2, 467; in the assay on NCI-H295R it was 448.

For `CCN1\C(=C(C(=O)NC)/C(=O)C2=C1N=C(C=C2)C#CC(C)(O)COC)N` (configuration not stated), the “area under concentration-response curve” value amounted to 482 in the assay on CU-ACC1, 579 in the assay with CU-ACC2 and 510 in the assay on NCI-H295R.

On to `CC1=C(C)C=C(N[S+]([O-])(=O)C2=CC3=C(NC(C4C\C=C/C34)C5=CC=C(C=C5)C(O)=O)C=C2)C=C1` (configuration not stated), for which the “area under concentration-response curve” value in the assay with CU-ACC1 stood at 525; in the assay on CU-ACC2, 600; in the assay on NCI-H295R it was 555.

On to `CN(C)C(=O)COC(=O)Cc1ccc(OC(=O)c2ccc(NC(=N)N)cc2)cc1`, for which the “area under concentration-response curve” value in the assay on CU-ACC1 is 464; with CU-ACC2, 564; in the assay on NCI-H295R it was 541.

As to `CCCC(CCC)C(=O)NC/1=N/C(=O)N(/C=C1)[C@@H]2O[C@H](CO)[C@@H](O)C2(F)F`, the “area under concentration-response curve” value was determined as 496 with CU-ACC1, 481 in the assay with CU-ACC2 and 543 with NCI-H295R.

Turning to `CC(=O)NC(CS)C(=O)O` (configuration not stated), the “area under concentration-response curve” value in the assay with CU-ACC1 was 413; in the assay on CU-ACC2, 466; in the assay with NCI-H295R, 457.

For the molecule `C[C@]1(C(=O)N(CCCC(=O)O)Cc2cccc(Cl)c2)CCN1C(=O)c1csc2ccccc12`, the “area under concentration-response curve” value stood at 490 with CU-ACC1, 584 with CU-ACC2 and 532 in the assay with NCI-H295R.

For `C[S+](=O)([O-])Oc1ccc2c(NC(N)=O)c(C(=O)c3ccc(Cl)cc3Cl)oc2c1`, the “area under concentration-response curve” value amounted to 515 with CU-ACC1, 568 in the assay on CU-ACC2 and 532 in the assay on NCI-H295R.

For the molecule `COc1ccc([S+](=O)([O-])N2CCc3cccc(-c4ccncc4)c32)cc1`, the “area under concentration-response curve” value in the assay with CU-ACC1 is 576; in the assay on CU-ACC2 it was 563; in the assay with NCI-H295R, 472.

`CNc1nc(Nc2ccc(C(=O)N3CCOCC3)cc2OC)ncc1Cl`: the “area under concentration-response curve” value came to 511 in the assay with CU-ACC1, 607 in the assay with CU-ACC2 and 555 with NCI-H295R.

In the case of `C[C@]\1(CCS\C(=N1)N)C2=CC(=C(F)C=C2F)C3=CN=CN=C3`, the “area under concentration-response curve” value in the assay on CU-ACC1 stood at 478; in the assay with CU-ACC2, 544; in the assay on NCI-H295R, 509.

As for `O=[N+]([O-])c1cn2c(n1)OC[C@@H](OCc1ccc(OC(F)(F)F)cc1)C2`, the results for the “area under concentration-response curve” value in the assay on CU-ACC1, in the assay with CU-ACC2 and with NCI-H295R were 528, 574 and 523, respectively.

Regarding `Cn1c(=O)c2c(ncn2CC(O)CO)n(C)c1=O` (configuration not stated), the “area under concentration-response curve” value in the assay with CU-ACC1 was 437; in the assay with CU-ACC2 it was 531; in the assay with NCI-H295R, 483.

In the case of `Cc1nnc(C(C)C)n1C1CC2CCC(C1)N2CCC(NC(=O)C1CCC(F)(F)CC1)c1ccccc1` (configuration not stated), the “area under concentration-response curve” value with CU-ACC1 was determined as 478; in the assay with CU-ACC2, 498; with NCI-H295R, 451.

On to `CN(C)[S+](=O)([O-])c1ccc2c(c1)C(=Cc1cc3c([nH]1)CCCC3)C(=O)N2`, for which the “area under concentration-response curve” value came out at 594 in the assay on CU-ACC1, 655 with CU-ACC2 and 576 in the assay on NCI-H295R.

Regarding `Cc1nc[nH]c1CN1CCN(C(=O)N[C@@H](CC(C)C)C(=O)O)[C@@H](Cc2ccccc2)C1=O`, the entries for the “area under concentration-response curve” value with CU-ACC1, with CU-ACC2 and in the assay with NCI-H295R were 576, 621 and 545, respectively.

Turning to `CCCCC(=O)O[C@@]1([C@@H](C)C[C@H]2[C@@H]3CCC/4=C/C(=O)/C=C\[C@]4(C)[C@@]3(F)[C@@H](O)C[C@]12C)C(=O)CO`, the “area under concentration-response curve” value in the assay with CU-ACC1 amounted to 455; with CU-ACC2, 555; in the assay with NCI-H295R, 462.

`CC[C@H]1OC(=O)[C@H](C)[C@@H](O[C@H]2C[C@@](C)(OC)[C@@H](O)[C@H](C)O2)[C@H](C)[C@@H](O[C@@H]2O[C@H](C)C[C@H](N(C)C)[C@H]2O)[C@](C)(O)C[C@@H](C)C(=O)[C@H](C)[C@@H](O)[C@]1(C)O`: the “area under concentration-response curve” value in the assay with CU-ACC1 is 544; in the assay with CU-ACC2, 634; with NCI-H295R, 594.

Turning to `Cn1c(CNc2ccc(C(=N)N)cc2)nc2cc(C(=O)N(CCC(=O)O)c3ccccn3)ccc21`, the “area under concentration-response curve” value was found to be 715 with CU-ACC1, 929 with CU-ACC2 and 834 in the assay with NCI-H295R.

As to `CNC1CCCN(C1)C2=C(F)C=C3C(=O)\C(=C/N(C4CC4)C3=C2OC)C(O)=O` (configuration not stated), the figures for the “area under concentration-response curve” value with CU-ACC1, in the assay with CU-ACC2 and with NCI-H295R were 530, 655 and 564, respectively.

`C[C@H]1CN(C[C@H](Cc2ccccc2)C(=O)NCC(=O)O)CC[C@@]1(C)c1cccc(O)c1`: the “area under concentration-response curve” value stood at 569 in the assay with CU-ACC1, 662 with CU-ACC2 and 577 in the assay with NCI-H295R.

With `CC(C)OC(=O)C(C(=O)OC(C)C)=C1S\C=C/S1`, the “area under concentration-response curve” value with CU-ACC1 is 517; in the assay on CU-ACC2 it was 638; in the assay with NCI-H295R, 575.

Turning to `O=C(O)/C=C/c1ccc(Cn2ccnc2)cc1`, the “area under concentration-response curve” value in the assay on CU-ACC1 is 485; in the assay with CU-ACC2 it was 486; in the assay on NCI-H295R, 572.

`OC1=CC=C(C=C1)\C2=C\OC3=C(C(=CC(=C3)O)O)C2=O`: the “area under concentration-response curve” value with CU-ACC1 was 435; with CU-ACC2 it was 499; with NCI-H295R, 555.

In the case of `CCO[C@@H]1OC(=O)C[C@@H]1NC(=O)[C@@H]1CCCN2C(=O)CC[C@H](NC(=O)c3nccc4ccccc34)C(=O)N12`, the results for the “area under concentration-response curve” value in the assay with CU-ACC1, in the assay on CU-ACC2 and in the assay with NCI-H295R were 568, 594 and 553, respectively.

In the case of `CN1CCN(CC1)C2=C(NC(=O)C/3=C/NC(=O)/C=C3C(F)(F)F)C=C(C=C2)C4=CC(=CC=C4)CN5CCOCC5`, the “area under concentration-response curve” value was 508 in the assay on CU-ACC1, 610 with CU-ACC2 and 514 with NCI-H295R.

Consider `OC(=O)\C1=C\N(C2=CC=C(F)C=C2)C3=C(C=C(F)C(=C3)N4CCNCC4)C1=O`, for which the “area under concentration-response curve” value amounted to 485 in the assay on CU-ACC1, 549 in the assay on CU-ACC2 and 497 with NCI-H295R.

Turning to `C[S+](=O)([O-])c1cc(F)cc2c3c(n(Cc4ccc(Cl)cc4)c12)[C@@H](CC(=O)O)CC3`, the “area under concentration-response curve” value in the assay with CU-ACC1 worked out at 536; with CU-ACC2, 613; with NCI-H295R, 544.

`C[C@]\12CC[C@H](O)CC1=C/CC3C2CC[C@@]\4(C)C3C\C=C4[N]5C=NC6=C5C=CC=C6` (some centres not stated): the figures for the “area under concentration-response curve” value with CU-ACC1, with CU-ACC2 and in the assay on NCI-H295R were 540, 516 and 548, respectively.
